Measurements published in publication PMC12383718, “C-Terminal Modification Contributes the Antibacterial Activity of a Cecropin-like Region of Heteroscorpine-1 from Scorpion Venom” (Biology, 2025).
Converted amounts (≈) assume the structure as drawn. Ends that are not written are not given here.

How the values were obtained:
[1] = tested on: Staphylococcus aureus ATCC 25923; assay: microbe, parasite or virus in culture; type: cell-based; settings: S. aureus ATCC 25923, 37 °C, 16–18 h, ND = no detection at the highest tested concentration
Method: (§1) The following microorganisms were used to determine the minimum inhibitory concentration (MIC) and minimum bactericidal concentration (MBC) of the peptides: Gram-positive Staphylococcus aureus ATCC 25923, Gram-negative Escherichia coli ATCC 25922, Klebsiella pneumoniae ATCC 27736, and Pseudomonas aeruginosa ATCC 27853. The assays were conducted according to the protocol described by Erviana et al., with some modifications.
(§2) The antibacterial activity of the modified CeHS-1 analogs was evaluated using MIC and MBC assays. The MIC (minimum inhibitory concentration) is defined as the lowest concentration of antimicrobial peptides (AMPs) or other agents that inhibits visible bacterial growth. In contrast, the MBC (minimum bactericidal concentration) is defined as the lowest concentration of AMPs that kills 99.9% of the bacterial inoculum under the specified conditions. The determination of MIC values was performed using a 96-well plate assay. Initially, peptides were serially diluted in the wells. Then, 10 µL of bacterial inoculum, previously adjusted to a cell density of 2.2 × 10^6 CFU/mL, was added to each well. The plates were incubated at 37 °C for 16–18 h. The MIC was determined by measuring the optical density at 600 nm (OD600), with the lowest concentration of AMPs that inhibited visible bacterial growth defined as the MIC. […] The lowest concentration of AMPs at which no bacterial colonies were observed was defined as the MBC [47].

[2] = tested on: Pseudomonas aeruginosa ATCC 27853; assay: microbe, parasite or virus in culture; type: cell-based; settings: P. aeruginosa ATCC 27853, 37 °C, 16–18 h, ND = no detection at the highest tested concentration
Method: as §1, §2

[3] = tested on: Klebsiella pneumoniae ATCC 27736; assay: microbe, parasite or virus in culture; type: cell-based; settings: K. pneumoniae ATCC 27736, 37 °C, 16–18 h, ND = no detection at the highest tested concentration
Method: as §1, §2

[4] = tested on: Escherichia coli ATCC 25922; assay: microbe, parasite or virus in culture; type: cell-based; settings: E. coli ATCC 25922, 37 °C, 16–18 h, ND = no detection at the highest tested concentration
Method: as §1, §2

[5] = tested on: S. aureus cytoplasmic membrane; type: cell-based, Staphylococcus aureus; settings: S. aureus 10^6 CFU/mL in PBS, 0.25, 0.5 and 1 MIC, 1 h, 37 °C; flow cytometry; at least triplicate
Method: A bacterial suspension of S. aureus was cultured in LB medium to the exponential phase (OD600 = 0.5). […] Following incubation, 42 µL of SYTOX™ Green Ready Flow™ Reagent (Invitrogen, Thermo Fisher Scientific, Carlsbad, CA, USA) was added to the peptide-treated cells and incubated for an additional 10 min at 25 °C. Fluorescence emission was measured using flow cytometry. The cell population was gated based on forward scatter and side scatter parameters. Cells with compromised membranes were identified by their fluorescence (excitation at 488 nm and detection at 530 nm with a 30 nm bandpass filter). The mean fluorescence intensity and the percentage of fluorescent cells were determined by analyzing 100,000 cells per sample. Each experiment was performed in at least triplicate. Flow cytometry measurements were conducted using a BD FACSCanto II system (BD Biosciences, Wokingham, UK).

[6] = tested on: human red blood cells (hRBCs); assay: Hemolytic activity assay; type: cell-based; settings: 500 µg/mL peptide (highest concentration tested); 4% hRBC suspension in PBS pH 7.4, 37 °C, 1 h, absorbance 415 nm; relative to 0.1% Triton X-100
Method: The hemolytic activity of the peptides was assessed using human red blood cells (hRBCs), following the method described by Erviana et al., with some modifications. Briefly, a 4% hRBC suspension was prepared in 1X phosphate-buffered saline (PBS, pH 7.4). Subsequently, 100 µL of the hRBC suspension was mixed with 100 µL of peptide samples at various concentrations (500, 200, 100, 50, and 25 µg/mL) in microcentrifuge tubes. The mixture was incubated at 37 °C for 1 h, followed by centrifugation at 100× g for 5 min. The supernatant was collected and transferred to a 96-well plate for absorbance measurement at 415 nm. The hemolytic activity of each peptide was subsequently calculated using the following equation: Hemolysis (%)=S/P×100
In the above equation, S represents the absorbance at 415 nm of the sample or negative control, while P represents the absorbance at 415 nm of the positive control. The peptide solvent was used as the negative control, whereas 0.1% Triton X-100 served as the positive control.

[7] = 25 µL from wells without visible growth spread on nutrient agar
[8] = 96-well plate serial dilution, 10 µL inoculum of 2.2 × 10^6 CFU/mL, OD600

Row | Compound | MBC ([1]; Staphylococcus aureus, ATCC25923, 25 µL from wells without visible growth spread on nutrient agar) | MIC ([1]; Staphylococcus aureus, ATCC25923, 96-well plate serial dilution, 10 µL inoculum of 2.2 × 10^6 CFU/mL, OD600) | MBC ([2]; Pseudomonas aeruginosa, ATCC27853, 25 µL from wells without visible growth spread on nutrient agar) | MIC ([2]; Pseudomonas aeruginosa, ATCC27853, 96-well plate serial dilution, 10 µL inoculum of 2.2 × 10^6 CFU/mL, OD600) | MBC ([3]; Klebsiella pneumoniae, ATCC27736, 25 µL from wells without visible growth spread on nutrient agar) | MIC ([3]; Klebsiella pneumoniae, ATCC27736, 96-well plate serial dilution, 10 µL inoculum of 2.2 × 10^6 CFU/mL, OD600) | MBC ([4]; Escherichia coli, ATCC25922, 25 µL from wells without visible growth spread on nutrient agar) | MIC ([4]; Escherichia coli, ATCC25922, 96-well plate serial dilution, 10 µL inoculum of 2.2 × 10^6 CFU/mL, OD600) | Cytoplasmic membrane permeabilization (SYTOX Green fluorescence intensity) [5] | E. coli MBC [4, 7] | E. coli MIC [4, 8] | Hemolytic activity [6] | S. aureus MBC [1, 7] | S. aureus MIC [1, 8] | P. aeruginosa MBC [2, 7] | P. aeruginosa MIC [2, 8] | K. pneumoniae MBC [3, 7] | K. pneumoniae MIC [3, 8]
1 | CC1(C)S[C@@H]2[C@H](NC(=O)[C@H](N)c3ccccc3)C(=O)N2[C@H]1C(=O)O [Ampicillin, reference compound] | 8 µg/mL (≈ 22.9 µM) | 8 µg/mL (≈ 22.9 µM) | 256 µg/mL (≈ 733 µM) | 128 µg/mL (≈ 366 µM) | > 256 µg/mL | > 256 µg/mL | 32 µg/mL (≈ 91.6 µM) | 4 µg/mL (≈ 11.4 µM) | – | – | – | – | – | – | – | – | – | –
2 | NC[C@H]1O[C@H](O[C@H]2[C@H](O)[C@@H](O[C@H]3O[C@H](CO)[C@@H](O)[C@H](N)[C@H]3O)[C@H](N)C[C@@H]2N)[C@H](O)[C@@H](O)[C@@H]1O [kanamycin] | – | – | – | – | – | – | – | – | low fluorescence intensity | – | – | – | – | – | – | – | – | –
3 | GWINIIKIQKKRWW-NH2 [compound 3] | – | – | – | – | – | – | – | – | – | 256 µg/mL | 128 µg/mL | 7.74 ± 1.18% | – | – | – | – | – | –
4 | KIQKKIIKKIGRWW-NH2 [compound 6] | – | – | – | – | – | – | – | – | – | 8 µg/mL | 8 µg/mL | 2.35 ± 0.20% | 64 µg/mL | 32 µg/mL | 32 µg/mL | 16 µg/mL | 256 µg/mL | 256 µg/mL
5 | KKILGGMAKAVRWW-NH2 [compound 9] | – | – | – | – | – | – | – | – | – | 32 µg/mL | 8 µg/mL | 2.39 ± 0.22% | 128 µg/mL | 64 µg/mL | 128 µg/mL | 64 µg/mL | 128 µg/mL | 128 µg/mL
6 | VHKLAKGIFKRWW-NH2 [compound 12] | – | – | – | – | – | – | – | – | – | 16 µg/mL | 4 µg/mL | 1.67 ± 0.17% | 32 µg/mL | 32 µg/mL | 64 µg/mL | 32 µg/mL | 256 µg/mL | 256 µg/mL
